{
  "source": "paper PMC2801581",
  "about": "(Journal of medicinal chemistry, 2009)",
  "key": {"[1]": {"target": "T1, LYP (Homo sapiens, UniProt Q9Y2R2)", "T1 sequence (Q9Y2R2 2-309)": "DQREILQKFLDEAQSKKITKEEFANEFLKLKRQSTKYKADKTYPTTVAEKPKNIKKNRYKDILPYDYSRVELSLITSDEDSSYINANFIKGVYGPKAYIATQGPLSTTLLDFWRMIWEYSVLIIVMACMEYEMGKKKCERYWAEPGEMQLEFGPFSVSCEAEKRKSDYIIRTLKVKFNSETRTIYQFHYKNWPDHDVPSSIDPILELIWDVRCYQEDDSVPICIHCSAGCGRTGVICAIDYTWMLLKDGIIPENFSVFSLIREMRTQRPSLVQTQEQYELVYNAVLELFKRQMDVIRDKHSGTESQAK", "assay": "LYP inhibition assay with fluorogenic substrates", "format": "biochemical", "settings": "for IC50: pH 6.5"}, "[2]": {"target": "T2, CD45 (Homo sapiens, UniProt P08575)", "T2 sequence (P08575 653-912 limits assumed)": "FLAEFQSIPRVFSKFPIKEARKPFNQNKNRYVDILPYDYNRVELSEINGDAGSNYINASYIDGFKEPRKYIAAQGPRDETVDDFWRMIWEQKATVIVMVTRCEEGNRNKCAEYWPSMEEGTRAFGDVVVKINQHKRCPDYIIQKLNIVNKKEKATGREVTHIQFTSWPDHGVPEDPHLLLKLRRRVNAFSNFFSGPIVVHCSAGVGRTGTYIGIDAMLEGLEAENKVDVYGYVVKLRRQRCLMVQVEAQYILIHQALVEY", "assay": "CD45 counterscreen", "format": "biochemical", "settings": "read-out: IC50 CD45 (DiFMUP)"}, "[3]": {"target": "T3, PTP-PEST (Homo sapiens, UniProt Q05209)", "T3 sequence (Q05209 2-323)": "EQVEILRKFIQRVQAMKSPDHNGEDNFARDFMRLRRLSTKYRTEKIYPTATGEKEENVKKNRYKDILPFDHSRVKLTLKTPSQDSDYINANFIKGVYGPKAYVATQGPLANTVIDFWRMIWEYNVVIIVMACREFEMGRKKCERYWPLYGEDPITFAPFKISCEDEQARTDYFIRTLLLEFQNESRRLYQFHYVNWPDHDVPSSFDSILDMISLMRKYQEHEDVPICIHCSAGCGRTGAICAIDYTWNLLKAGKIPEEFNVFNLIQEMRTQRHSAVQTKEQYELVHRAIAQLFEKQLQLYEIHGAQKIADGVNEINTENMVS", "assay": "PTP-PEST inhibition assay with fluorogenic substrates", "format": "biochemical", "settings": "pH 6.5"}, "[4]": {"target": "T4, HePTP (Homo sapiens, UniProt P35236)", "T4 sequence (P35236 65-360)": "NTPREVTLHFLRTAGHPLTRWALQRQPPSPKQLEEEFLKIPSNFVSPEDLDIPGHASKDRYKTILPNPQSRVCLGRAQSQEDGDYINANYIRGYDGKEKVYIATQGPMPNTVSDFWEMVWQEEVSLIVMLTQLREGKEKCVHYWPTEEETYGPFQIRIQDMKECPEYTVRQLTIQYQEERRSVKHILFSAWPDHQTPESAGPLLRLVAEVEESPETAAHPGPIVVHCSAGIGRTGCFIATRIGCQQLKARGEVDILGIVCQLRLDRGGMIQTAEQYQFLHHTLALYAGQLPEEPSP", "assay": "HePTP counterscreen", "format": "biochemical", "settings": "read-out: IC50 HePTP (DiFMUP)"}, "[5]": {"tested_on": "CD45"}, "[6]": {"tested_on": "LYP"}, "[7]": {"target": "T5, CD45 (Homo sapiens, UniProt P08575)", "T5 sequence (P08575 26-1306)": "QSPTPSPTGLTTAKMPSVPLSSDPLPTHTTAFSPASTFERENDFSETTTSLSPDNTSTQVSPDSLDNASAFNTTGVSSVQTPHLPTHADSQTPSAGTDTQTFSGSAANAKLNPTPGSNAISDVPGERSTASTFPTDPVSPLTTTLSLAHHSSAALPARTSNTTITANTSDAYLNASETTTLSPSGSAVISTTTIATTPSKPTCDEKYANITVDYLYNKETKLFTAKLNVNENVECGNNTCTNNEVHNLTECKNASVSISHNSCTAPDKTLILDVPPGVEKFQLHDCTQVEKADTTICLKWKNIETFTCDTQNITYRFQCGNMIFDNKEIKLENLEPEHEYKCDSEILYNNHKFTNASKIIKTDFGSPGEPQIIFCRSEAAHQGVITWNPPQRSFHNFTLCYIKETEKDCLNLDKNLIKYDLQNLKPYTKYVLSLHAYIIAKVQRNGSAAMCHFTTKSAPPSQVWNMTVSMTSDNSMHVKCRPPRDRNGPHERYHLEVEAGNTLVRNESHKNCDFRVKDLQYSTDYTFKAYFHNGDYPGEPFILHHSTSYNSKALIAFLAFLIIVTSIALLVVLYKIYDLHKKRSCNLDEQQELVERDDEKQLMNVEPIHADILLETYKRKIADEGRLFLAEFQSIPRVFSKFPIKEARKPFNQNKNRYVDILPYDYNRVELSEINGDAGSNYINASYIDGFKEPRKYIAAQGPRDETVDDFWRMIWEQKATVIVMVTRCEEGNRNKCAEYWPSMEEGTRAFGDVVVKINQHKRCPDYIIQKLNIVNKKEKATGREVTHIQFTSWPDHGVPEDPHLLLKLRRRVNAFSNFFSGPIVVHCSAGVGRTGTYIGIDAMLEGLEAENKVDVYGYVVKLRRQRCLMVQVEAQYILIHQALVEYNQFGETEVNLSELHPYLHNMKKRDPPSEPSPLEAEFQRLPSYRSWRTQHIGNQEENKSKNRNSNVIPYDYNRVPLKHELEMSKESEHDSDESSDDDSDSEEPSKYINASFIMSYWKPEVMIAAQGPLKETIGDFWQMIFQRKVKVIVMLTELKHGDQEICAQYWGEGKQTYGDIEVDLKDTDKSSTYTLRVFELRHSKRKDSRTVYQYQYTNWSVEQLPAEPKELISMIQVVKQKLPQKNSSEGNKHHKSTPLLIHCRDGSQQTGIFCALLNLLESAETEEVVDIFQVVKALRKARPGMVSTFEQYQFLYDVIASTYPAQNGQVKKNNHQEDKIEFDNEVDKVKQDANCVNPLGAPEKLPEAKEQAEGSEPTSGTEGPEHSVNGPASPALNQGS", "assay": "Intracellular CD45 inhibition in JTAg cells, anti-pLck", "format": "cell-based"}, "[8]": {"tested_on": "LYP", "assay": "Intracellular LYP inhibition in JTAg cells, anti-pLck", "format": "cell-based, human"}},
  "note": "Like-named read-outs stand apart in the source and are kept apart here.",
  "data": [
    {"compound": "[Cl][Au][PH](c1ccccc1)(c1ccccc1)c1ccccn1", "note": "[Compound 17, Diphenyl-2-pyridylphosphine-Au(I)-Cl]", "values": [
      {"measurement": "LYP versus PTP-PEST inhibition in comparative library screen", "setting": "[1]", "value": "more potent inhibitors of LYP than PTP-PEST regardless of the substrate used"},
      {"measurement": "selectivity for LYP over PTP-PEST in dose-response screens", "setting": "[1]", "value": "selective for LYP over the ~ 70% identical PTP-PEST"},
      {"measurement": "IC50", "setting": "[1]; read-out: IC50 LYP (DiFMUP)", "value": "5 ± 0.2", "unit": "µM"},
      {"measurement": "IC50", "setting": "[1]; read-out: IC50 LYP (peptide 1)", "value": "1.5 ± 0.3", "unit": "µM"},
      {"measurement": "IC50", "setting": "[2]", "value": "> 150", "unit": "µM"},
      {"measurement": "IC50", "setting": "[3]; read-out: IC50 PEST (DiFMUP)", "value": "76 ± 3", "unit": "µM"},
      {"measurement": "IC50", "setting": "[3]; read-out: IC50 PEST (peptide 1)", "value": "43 ± 3", "unit": "µM"},
      {"measurement": "IC50", "setting": "[4]", "value": "35 ± 2", "unit": "µM"},
      {"measurement": "CD45 activity in primary mouse thymocytes (pLck Tyr505)", "setting": "[5]", "value": "not CD45 activity"},
      {"measurement": "LYP activity in primary mouse thymocytes (pLck Tyr394)", "setting": "[6]", "value": "appears to inhibit LYP activity"},
      {"measurement": "phosphorylation of Lck at Y505 (CD45 activity in cells)", "setting": "[7]", "value": "no change in phosphorylation levels at position Y505"},
      {"measurement": "phosphorylation of Lck at Y394 (LYP activity in cells)", "setting": "[8]", "value": "increase in phosphorylation at Y394"}
    ]}
  ]
}
